Laboratory results: EP0041488A1, “Therapeutically useful tetralin derivatives” (Arvidsson, Folke Lars-Erik, priority 1980, dated 1981)
Marks after values point to notes of the source that are not given here.

Assays:
[1] = system: central 5-HT receptors; assay: In-vivo determination of rat brain tryptophan hydroxylation (5-HTP formation) after reserpine pretreatment; conditions: reserpine-pretreated rats; for "ED70%" for 5-HTP reduction: s.c., dose giving 70 % of the control 5-HTP level, similar values for limbic forebrain, striatum and hemispheral portions
Experimental: b. In-vivo determination of rat brain tyrosine and tryptophan hydroxylation after reserpine pretreatment (biochemical DA- and 5-HT receptor activity).
The compounds under evaluation were tested biochemically for central DA- and 5-HT-receptor (pre- and/or postsynaptic) stimulating activity. The concept of this biochemical screening method is that a DA- or 5-HT-receptor agonist will stimulate the receptor and through regulatory feedback systems effect a decline-in tyrosine or tryptophan hydroxylating activity, respectively, and a subsequent reduction in the synthesis rate for DA and 5-HT in the presynaptic neuron. Dopa and 5-HTP formation. as determined after in-vivo inhibition of the aromatic L-amino acid decarboxylase with NSO 1015 (3-hydroxybenzylhydrazine hydrochloride) are taken as indirect measures of DA- and 5-HT-synthesis rates, respectively.
Rats (150-300 g) pretreated with reserpine (5 mg/kg, 18 h before) were given the compounds under evaluation. Gross behavioural observations (changes in motility, hindleg abduction etc; c.f. above) were made. Subsequent administration of NSD 1015, decapitation, brain dissection [cerpera striate, the limbic ferebrain and the remaining hemispheral portions (mainly cortex) of rat brain], homogenization, centrifugation, ion-exchange chromatography and spectro- fluorimetric measurements (all as described in detail by Wikström et al., J. Med. Chem., 21, 864-867, 1978 and references cited therein) gave the actual dopa and 5-HTP levels. Several doses (n=4-6) were tested for each compound and brain area. The dose of a compound giving 70 % of the control 5-HTP.level in the rat brain part was then estimated.

[2] = system: Male Wistar rats; assay: Hetero-sexual (masculine copulatory) behaviour in normal male rats; assay type: in vivo, rat; conditions: median
Experimental: (§1) Male Wistar rats (12 months old; sexually experienced) were injected i.p. every second day in a balanced order with different doses of the compounds dissolved in physiological saline and injected in a volume of 2 ml/kg. Testing was begun 15 min after the drug treatment.
(§2) Mating arenas were 50' cm diameter acrylic glass cages with wood shavings on the floor. The stimulus females were of Wistar strain, primed with estradiol benzoate . (20 µg/animal) 48 h prior to testing and progesterone ([…]/animal) 4-6 h before testing.
(§3) The occurrence of mounts, intromissions and ejaculations were scored by an experienced observer. The measures of masculine copulatory behavior further included mount latency and intromission latency which are time from introduction of the stimulus female to the first mount and first intromission respectively. A copulatory series includes the mounts and intromissions preceding an ejaculation. Ejaculatory latency is the time from the first .intromission in a copulatory series to the ejaculation terminating that series. The postejaculatory interval is the time from an ejaculation to the next intromission. Tests were terminated when the rat had achieved one ejaculation and started the second series of copulations, or, if the intromission latency was >15 min, the ejaculation latency was >30 min, or the postejaculatory interval was >15 min.

[3] = system: castrated male rats; assay: Sexual behaviour in castrated male rats (preliminary); assay type: in vivo, rat
Experimental: as §1, §2, §3

[4] = subgroup 1 of biochemical potency
[5] = subgroup 3 of biochemical potency

Structure (SMILES): CCCCNC1CCc2cccc(O)c2C1 (stereo not shown) [Compound 16]
- "ED70%" for 5-HTP reduction [1]: 6 µmol/kg

Structure (SMILES): CCCN(CCC)C1CCc2cccc(OC)c2C1 (single isomer, unassigned; (+)) [(+)-8]
- "ED70%" for 5-HTP reduction [1]: 0.2 to 0.4 µmol/kg
- Mounts (number) ([2]; 4 mg/kg i.p., 15 min after treatment, control 2, listed as (+)-8 · HCl): 1^*
- Ejaculatory latency ([2]; 4 mg/kg i.p., 15 min after treatment, control 4.75, listed as (+)-8 · HCl): 1.05^*** min
- Postejaculatory interval ([2]; 4 mg/kg i.p., 15 min after treatment, control 5.50, listed as (+)-8 · HCl): 6.15 min
- Intromissions (number) ([2]; 4 mg/kg i.p., 15 min after treatment, control 9, listed as (+)-8 · HCl): 2^***

Structure (SMILES): Br.CCCN(CCC)C1CCc2cccc(O)c2C1 (stereo not shown) [Compound 20, 2-(di-n-propylamino)-8-hydroxytetralin hydrobromide]
- "ED70%" for 5-HTP reduction [1]: 0.06 µmol/kg
- "ED70%" [1, 4]: 0.01 to 1.0 µmol/kg
- Mounts (number) ([2]; 4 mg/kg i.p., second experiment (N 9), control 1): 0
- Ejaculatory latency ([2]; 4 mg/kg i.p., second experiment (N 9), control 1.80): 0.25 min
- Postejaculatory interval ([2]; 4 mg/kg i.p., second experiment (N 9), control 4.45): 4.75 min
- Intromissions (number) ([2]; 4 mg/kg i.p., second experiment (N 9), control 5): 1^***

Structure (SMILES): CCCCCCCCNC1CCc2cccc(O)c2C1 (stereo not shown) [Compound 18]
- "ED70%" for 5-HTP reduction [1]: 50 µmol/kg
- "ED70%" [1, 5]: above 10 umol/kg

Structure (SMILES): CCCN(CC)C1CCc2cccc(O)c2C1 (stereo not shown) [Compound 19]
- "ED70%" for 5-HTP reduction [1]: 0.09 µmol/kg

Structure (SMILES): Oc1cccc2c1CC(N1CCCCC1)CC2 (stereo not shown) [Compound 24]
- "ED70%" for 5-HTP reduction [1]: <20 µmol/kg

Structure (SMILES): CCCCN(CCC)C1CCc2cccc(O)c2C1 (stereo not shown) [Compound 21]
- "ED70%" for 5-HTP reduction [1]: 0.5 µmol/kg
- "ED70%" [1, 4]: 0.01 to 1.0 µmol/kg

Structure (SMILES): CC(C)NC1CCc2cccc(O)c2C1 (stereo not shown) [Compound 17]
- "ED70%" for 5-HTP reduction [1]: 8 µmol/kg

Structure (SMILES): CCCN(Cc1ccccc1)C1CCc2cccc(O)c2C1 (stereo not shown) [Compound 23]
- "ED70%" for 5-HTP reduction [1]: 3 µmol/kg

Structure (SMILES): CCCCN(CCCC)C1CCc2cccc(O)c2C1 (stereo not shown) [Compound 22]
- "ED70%" for 5-HTP reduction [1]: 8 µmol/kg

Structure (SMILES): CCCN(CCC)C1CCc2cccc(OC)c2C1 (single isomer, unassigned; (-)) [(-)-8]
- "ED70%" for 5-HTP reduction [1]: 0.3 to 0.4 µmol/kg
- Mounts (number) ([2]; 4 mg/kg i.p., 15 min after treatment, control 2, listed as (-)-8 · HCl): 0.5^*
- Ejaculatory latency ([2]; 4 mg/kg i.p., 15 min after treatment, control 4.75, listed as (-)-8 · HCl): 1.30^*** min
- Postejaculatory interval ([2]; 4 mg/kg i.p., 15 min after treatment, control 5.50, listed as (-)-8 · HCl): 5.65 min
- Intromissions (number) ([2]; 4 mg/kg i.p., 15 min after treatment, control 9, listed as (-)-8 · HCl): 4.5^**

Structure (SMILES): CCCNC1CCc2cccc(O)c2C1 (stereo not shown) [Compound 15]
- "ED70%" for 5-HTP reduction [1]: 0.4 µmol/kg

Structure (SMILES): CNC1CCc2cccc(O)c2C1 (stereo not shown) [Compound 14]
- "ED70%" for 5-HTP reduction [1]: 1.5 to 10 µmol/kg

Structure (SMILES): CCCN(CCC)C1CCc2cccc(OC)c2C1 (racemic) [Compound 8, 2-(di-n-propylamino)-8-methoxytetralin]
- "ED70%" for 5-HTP reduction [1]: 0.4 µmol/kg
- Mounts (number) ([2]; 1 mg/kg i.p., 15 min after treatment, control 2): 0^* b)
- Ejaculatory latency ([2]; 1 mg/kg i.p., 15 min after treatment, control 4.75): 3.20 min
- Postejaculatory interval ([2]; 1 mg/kg i.p., 15 min after treatment, control 5.50): 6.40 min
- Intromissions (number) ([2]; 1 mg/kg i.p., 15 min after treatment, control 9): 8
- Mounts (number) ([2]; 2 mg/kg i.p., 15 min after treatment, control 2): 1
- Ejaculatory latency ([2]; 2 mg/kg i.p., 15 min after treatment, control 4.75): 2.65 min
- Postejaculatory interval ([2]; 2 mg/kg i.p., 15 min after treatment, control 5.50): 5.05 min
- Intromissions (number) ([2]; 2 mg/kg i.p., 15 min after treatment, control 9): 7^***
- Mounts (number) ([2]; 4 mg/kg i.p., 15 min after treatment, control 2): 1^***
- Ejaculatory latency ([2]; 4 mg/kg i.p., 15 min after treatment, control 4.75): 1.55^*** min
- Postejaculatory interval ([2]; 4 mg/kg i.p., 15 min after treatment, control 5.50): 4.55 min
- Intromissions (number) ([2]; 4 mg/kg i.p., 15 min after treatment, control 9): 3.5^***
- Mounts (number) ([2]; 8 mg/kg i.p., 15 min after treatment, control 2): 0^**
- Ejaculatory latency ([2]; 8 mg/kg i.p., 15 min after treatment, control 4.75): 0.45^*** min
- Postejaculatory interval ([2]; 8 mg/kg i.p., 15 min after treatment, control 5.50): 5.05 min
- Intromissions (number) ([2]; 8 mg/kg i.p., 15 min after treatment, control 9): 1.5^***
- Mounts (number) ([2]; 16 mg/kg i.p., 15 min after treatment, control 2): 0^***
- Ejaculatory latency ([2]; 16 mg/kg i.p., 15 min after treatment, control 4.75): 0.55^*** min
- Postejaculatory interval ([2]; 16 mg/kg i.p., 15 min after treatment, control 5.50): 4.55 min
- Intromissions (number) ([2]; 16 mg/kg i.p., 15 min after treatment, control 9): 1^***
- castrated male rats that ejaculated ([3]; 8 mg/kg, out of 9 rats (of the 2 with intromissions), preliminary): 1
- castrated male rats that made intromissions ([3]; 8 mg/kg, out of 9 rats (of the 5 that mounted), preliminary): 2
- castrated male rats that mounted the female ([3]; 8 mg/kg, out of 9 rats, none of 9 saline-treated showed any sexual activity, preliminary): 5
- sexual activity of male rats rendered sexual inactive by castration ([3]; preliminary experiments): became sexual active

Structure (SMILES): CCCCN(CCCC)C1CCc2cccc(OC)c2C1 (stereo not shown) [Compound 10]
- "ED70%" for 5-HTP reduction [1]: 25 µmol/kg
- "ED70%" [1, 5]: above 10 umol/kg
